Assay results from patent US6403343B2, “Method of producing a taxane-type diterpene and a method of obtaining cultured cells which produce the taxane-type dilterpene at a high rate” (Mitsui Chemicals, Inc., priority 1993, dated 2002).

Test system: cultured cells of Taxus baccata LINN
Experiment: Growth rate and taxane yield, 21-day shake culture of Taxus baccata cells with heavy metal compound, amine, antiethylene agent or Ethrel added
Assay type: cell-based
Protocol: (§1) One gram (fresh weight) of the callus was inoculated to an Erlenmeyer flask containing 20 ml of liquid Woody Plant Medium to which the above-mentioned component was added to give the same concentration and shake culture was carried out with a rotary shaker (amplification of 25 mm, 100 rpm) and the callus was subcultured in every 21 days to accelerate the growth rate thereof.
Then shake culture was carried out at 25° C. for 21 days.
(§2) After completing the culture, cultured cells of Taxus baccata LINN were harvested by filtration and lyophilized, then the dry weight was measured to obtain the growth rate thereof. Taxane-type diterpenes were extracted from the dried callus with methanol and the like, and they were determined by comparing with standard taxol, cephalomannine, and baccatin III using high performance liquid chromatography to measure the yields of the taxane-type diterpenes.
as §1
One gram (fresh weight) of the cultured cells thus obtained was inoculated to an Erlenmeyer flask containing 20 ml of liquid Woody Plant Medium to which the above-mentioned component had been added to give the same concentration, then spermidine was added to it as amine to give the final concentration of 10^−9M-1M. Then shake culture was carried out at 25° C. for 21 days.
as §2, with “cells” for “callus”, “diterpene.” for “diterpenes.”
as §1, with “component had been” for “component was”
One gram (fresh weight) of the cultured cells thus obtained was inoculated to an Erlenmeyer flask containing 20 ml of liquid Woody Plant Medium to which the above-mentioned component had been added to give the same concentration, and shake culture was carried out at 25° C. for 14 days.

[1] = 10^−1 M added at start, 21 days
[2] = 10^−2 M added at start, 21 days
[3] = 10^−3 M added at start, 21 days
[4] = 10^−4 M added at start, 21 days
[5] = 10^−5 M added at start, 21 days
[6] = 10^−6 M added at start, 21 days
[7] = 10^−7 M added at start, 21 days
[8] = 10^−8 M added at start, 21 days
[9] = 10^−9 M added at start, 21 days
[10] = 2×10^−6 M added 5 times at 4 days' intervals from day 0, total 10^−5 M
[11] = 10^−5 M added on 7th day, 14 more days
[12] = 10^−5 M added on 14th day, 7 more days
[13] = 10^−5 M added on 18th day, 3 more days
[14] = 10^−5 M at start + methyl jasmonate 10^−4 M on 14th day
[15] = 10^−5 M at start + methyl jasmonate 10^−4 M on 14th day, oxygen 10% in the gas phase
[16] = 10^−5 M at start, oxygen 10% in the gas phase
[17] = Ethrel 10^−3 M added at the start (0 day), no acetylsalicylic acid, oxygen 20%
[18] = Ethrel 10^−3 M added at the start (0 day), no acetylsalicylic acid, oxygen 20%, cell + medium

NCCCNCCCCNCCCN [spermin]
growth rate (1 M added at start, 21 days): 1.0 times | total yield of taxane (1 M added at start, 21 days): 0.22 mg/L | yield of baccatin III (1 M added at start, 21 days): 0.10 mg/L | yield of cephalomannine (1 M added at start, 21 days): 0.04 mg/L | yield of taxol (1 M added at start, 21 days): 0.08 mg/L | growth rate [1]: 1.4 times | total yield of taxane [1]: 1.29 mg/L | yield of baccatin III [1]: 0.39 mg/L | yield of cephalomannine [1]: 0.32 mg/L | yield of taxol [1]: 0.58 mg/L | growth rate [2]: 2.1 times | total yield of taxane [2]: 3.30 mg/L | yield of baccatin III [2]: 0.70 mg/L | yield of cephalomannine [2]: 1.54 mg/L | yield of taxol [2]: 1.06 mg/L | growth rate [3]: 2.0 times | total yield of taxane [3]: 8.22 mg/L | yield of baccatin III [3]: 0.76 mg/L | yield of cephalomannine [3]: 2.68 mg/L | yield of taxol [3]: 4.78 mg/L | growth rate [4]: 2.3 times | total yield of taxane [4]: 11.96 mg/L | yield of baccatin III [4]: 1.64 mg/L | yield of cephalomannine [4]: 4.09 mg/L | yield of taxol [4]: 6.23 mg/L | growth rate [5]: 2.1 times | total yield of taxane [5]: 17.18 mg/L | yield of baccatin III [5]: 2.09 mg/L | yield of cephalomannine [5]: 5.63 mg/L | yield of taxol [5]: 9.46 mg/L | growth rate [6]: 2.4 times | total yield of taxane [6]: 6.89 mg/L | yield of baccatin III [6]: 0.89 mg/L | yield of cephalomannine [6]: 1.97 mg/L | yield of taxol [6]: 4.03 mg/L | growth rate [7]: 2.4 times | total yield of taxane [7]: 4.17 mg/L | yield of baccatin III [7]: 0.68 mg/L | yield of cephalomannine [7]: 1.32 mg/L | yield of taxol [7]: 2.17 mg/L | growth rate [8]: 2.3 times | total yield of taxane [8]: 3.42 mg/L | yield of baccatin III [8]: 0.62 mg/L | yield of cephalomannine [8]: 1.01 mg/L | yield of taxol [8]: 1.79 mg/L | growth rate [9]: 2.9 times | total yield of taxane [9]: 1.86 mg/L | yield of baccatin III [9]: 0.50 mg/L | yield of cephalomannine [9]: 0.64 mg/L | yield of taxol [9]: 0.72 mg/L

[Cl][Co][Cl] [cobalt chloride]
growth rate (1 M added at start, 21 days): 0.6 times | total yield of taxane (1 M added at start, 21 days): 0 mg/L | yield of baccatin III (1 M added at start, 21 days): 0 mg/L | yield of cephalomannine (1 M added at start, 21 days): 0 mg/L | yield of taxol (1 M added at start, 21 days): 0 mg/L | growth rate [10]: 2.6 times | total yield of taxane [10]: 27.66 mg/L | yield of baccatin III [10]: 5.32 mg/L | yield of cephalomannine [10]: 6.58 mg/L | yield of taxol [10]: 15.76 mg/L | growth rate [1]: 0.8 times | total yield of taxane [1]: 1.08 mg/L | yield of baccatin III [1]: 0.11 mg/L | yield of cephalomannine [1]: 0.42 mg/L | yield of taxol [1]: 0.55 mg/L | growth rate [2]: 1.4 times | total yield of taxane [2]: 2.14 mg/L | yield of baccatin III [2]: 0.44 mg/L | yield of cephalomannine [2]: 0.78 mg/L | yield of taxol [2]: 0.92 mg/L | growth rate [3]: 2.2 times | total yield of taxane [3]: 7.98 mg/L | yield of baccatin III [3]: 1.57 mg/L | yield of cephalomannine [3]: 2.03 mg/L | yield of taxol [3]: 4.38 mg/L | growth rate [4]: 2.7 times | total yield of taxane [4]: 10.02 mg/L | yield of baccatin III [4]: 1.64 mg/L | yield of cephalomannine [4]: 3.46 mg/L | yield of taxol [4]: 4.92 mg/L | growth rate [5]: 3.2 times | total yield of taxane [5]: 28.29 mg/L | yield of baccatin III [5]: 5.68 mg/L | yield of cephalomannine [5]: 6.50 mg/L | yield of taxol [5]: 16.11 mg/L | growth rate [11]: 3.2 times | total yield of taxane [11]: 20.56 mg/L | yield of baccatin III [11]: 4.36 mg/L | yield of cephalomannine [11]: 5.98 mg/L | yield of taxol [11]: 10.22 mg/L | growth rate [12]: 3.1 times | total yield of taxane [12]: 13.48 mg/L | yield of baccatin III [12]: 2.01 mg/L | yield of cephalomannine [12]: 4.37 mg/L | yield of taxol [12]: 7.10 mg/L | growth rate [13]: 2.9 times | total yield of taxane [13]: 3.60 mg/L | yield of baccatin III [13]: 1.17 mg/L | yield of cephalomannine [13]: 1.11 mg/L | yield of taxol [13]: 1.32 mg/L | growth rate [14]: 2.5 times | total yield of taxane [14]: 62.78 mg/L | yield of baccatin III [14]: 23.00 mg/L | yield of cephalomannine [14]: 9.46 mg/L | yield of taxol [14]: 30.32 mg/L | growth rate [15]: 2.4 times | total yield of taxane [15]: 74.83 mg/L | yield of baccatin III [15]: 25.85 mg/L | yield of cephalomannine [15]: 15.21 mg/L | yield of taxol [15]: 33.77 mg/L | growth rate [16]: 2.7 times | total yield of taxane [16]: 52.24 mg/L | yield of baccatin III [16]: 17.61 mg/L | yield of cephalomannine [16]: 7.99 mg/L | yield of taxol [16]: 26.64 mg/L | growth rate [6]: 2.4 times | total yield of taxane [6]: 16.36 mg/L | yield of baccatin III [6]: 2.25 mg/L | yield of cephalomannine [6]: 5.79 mg/L | yield of taxol [6]: 8.32 mg/L | growth rate [7]: 2.6 times | total yield of taxane [7]: 1.08 mg/L | yield of baccatin III [7]: 0.16 mg/L | yield of cephalomannine [7]: 0.63 mg/L | yield of taxol [7]: 0.29 mg/L | growth rate [8]: 2.6 times | total yield of taxane [8]: 1.05 mg/L | yield of baccatin III [8]: 0.15 mg/L | yield of taxol [8]: 0.29 mg/L | growth rate [9]: 2.5 times | total yield of taxane [9]: 0.98 mg/L | yield of baccatin III [9]: 0.15 mg/L | yield of cephalomannine [9]: 0.56 mg/L | yield of taxol [9]: 0.27 mg/L

C=C [ethylene]
production of the taxane-type diterpene by the tissues and the cells: greatly inhibits

O=P(O)(O)CCCl [Reference Example 1]
growth rate [17]: 2.7 times | total yield of taxane [17]: 0.40 mg/L | yield of baccatin III [18]: 0.12 mg/L | yield of cephalomannine [18]: 0.14 mg/L | yield of taxol [18]: 0.14 mg/L
